Laboratory results taken from patent US9546201B2, “MUC-1 cytoplasmic domain peptides as inhibitors of cancer” (DANA-FARBER CANCER INSTITUTE, INC., priority 2008, dated 2017).
“Also recorded” adds a separate entry of the source. Where a SMILES comes first, the peptide text is derived from it. [ ]: non-standard residue; d: D form.

Assays:
MCF-7 cells = assay: Cell cycle distribution and necrosis by flow cytometry, MCF-7; type: cell-based, human; conditions: MCF-7, 5 μM, 3 and 4 d
Method: FIGS. 3A-D. MUC1/CQC peptide induces S phase arrest and necrosis. ZR-75-1 (FIGS. 3A-B) and MCF-7 (FIGS. 3C-D) cells were treated with 5 μM MUC1/CQC or MUC1/AQA for 3 and 4 d. Cells were fixed and analyzed for cell cycle distribution by flow cytometry (FIGS. 3A and 3C). The percentage of cells in G1, S and G2/M phases is included in the panels. Cells were also stained with propidium iodide and analyzed by flow cytometry for necrosis (FIGS. 3B and 3D). The percentage of necrotic cells is included in the panels.
Cells were harvested, washed with PBS, fixed with 80% ethanol, and incubated in PBS containing 40 μg/ml RNAse and 40 μg/ml propidium iodide for 30 min at 37° C. Cell cycle distribution was determined by flow cytometry. Sub-G1 DNA content was assessed by staining ethanol-fixed and citrate buffer-permeabilized cells with propidium iodide and monitoring by flow cytometry as described (Yin et al., 2007). For assessment of necrosis, cells were incubated with 1 μg/ml propidium iodide/PBS for 5 min at room temperature and then monitored by flow cytometry as described (Yin et al., 2007).
To determine whether the MUC1/CQC peptide affects growth, ZR-75-1 cells were treated with 5 μM MUC1/CQC for 72 h and monitored for cell cycle distribution. […] These findings indicate that the MUC1/CQC peptide inhibits growth and induces necrosis of human breast cancer cells.

ZR-75-1/MUC1siRNA cells = assay: Viable cell number by trypan blue exclusion, ZR-75-1/MUC1siRNA; type: cell-based, human; conditions: 5 μM; MUC1 silenced
Method: (§1) FIGS. 4A-E. Selectivity of MUC1/CQC for MUC1 expressing breast cancer cells. (FIG. 4A) ZR-75-1 cells were stably infected with an empty lentivirus (vector) or one expressing a MUC1 siRNA. Lysates for the infected cells were immunoblotted with the indicated antibodies. (FIG. 4B) ZR-75-1/vector cells were left untreated (diamonds), and ZR-75-1/vector (squares) and ZR-75-1/MUC1siRNA (triangles) cells were treated with 5 μM MUC1/CQC peptide for the indicated times. Viable cell number was determined by trypan blue exclusion. (FIG. 4C) 293 cells were left untreated (diamonds), and treated with 5 μM MUC1/CQC (squares) or MUC1/AQA (triangles) for the indicated times. Viable cell number was determined by trypan blue exclusion. (FIG. 4D) MCF-10A cells were left untreated (left panel), and treated with 5 μM MUC1/CQC (middle panel) or MUC1/AQA (right panel). At 3 d, cells were analyzed for cell cycle distribution. […] Viable cell number was determined by trypan blue exclusion.
(§2) Human breast cancer ZR-75-1, ZR-75-1/vector, ZR-75-1/MUC1siRNA (Ren et al., 2004) cell lines were grown in RPMI1640 medium supplemented with 10% heat-inactivated fetal bovine serum (HI-FBS), 100 U/ml penicillin, and 100 μg/ml streptomycin (Invitrogen) in a humidified incubator at 37° C. and 5% CO2. […] Viability was determined by trypan blue exclusion. […]

MUC1-negative 293 cells = assay: Viable cell number by trypan blue exclusion, 293 cells; type: cell-based; conditions: 5 μM
Method: as §1, §2

CC[C@H](C)[C@H](NC(=O)[C@H](CC(=O)O)NC(=O)[C@H](CC(C)C)NC(=O)[C@H](CCC(N)=O)NC(=O)CNC(=O)[C@H](Cc1ccc(O)cc1)NC(=O)[C@H](CC(N)=O)NC(=O)[C@H](CCCCN)NC(=O)[C@H](CCCNC(=N)N)NC(=O)[C@H](CCCNC(=N)N)NC(=O)[C@H](CS)NC(=O)[C@H](CCC(N)=O)NC(=O)[C@H](CS)NC(=O)[C@@H](CCCNC(=N)N)NC(=O)[C@@H](CCCNC(=N)N)NC(=O)[C@@H](CCCNC(=N)N)NC(=O)[C@@H](CCCNC(=N)N)NC(=O)[C@@H](CCCNC(=N)N)NC(=O)[C@@H](CCCNC(=N)N)NC(=O)[C@@H](CCCNC(=N)N)NC(=O)[C@@H](CCCNC(=N)N)NC(=O)[C@H](N)CCCNC(=N)N)C(=O)N[C@@H](Cc1ccccc1)C(=O)N1CCC[C@H]1C(=O)O [MUC1/CQC] (H-[dR][dR][dR][dR][dR][dR][dR][dR][dR]CQCRRKNYGQLDIFP-OH; N-terminus and C-terminus assumed)
cell cycle distribution (MCF-7 cells): arrest of growth in S phase | necrosis (MCF-7 cells): induction of necrosis | effect on growth (viable cell number) (ZR-75-1/MUC1siRNA cells): substantially less effect; also recorded: abrogated the MUC1/CQC cytotoxic effects | effect on growth (MUC1-negative 293 cells): no apparent effect
